{
  "source": "patent US20090280166A1",
  "about": "“FERRITIN AS A THERAPEUTIC TARGET IN ABNORMAL CELLS” (The Penn State Research Foundation, priority 2005, published 2009)",
  "key": {"[1]": {"system": "H-ferritin", "assay": "Ferritin in nuclear and cytoplasmic fractions after DFO, alloxan and FAC treatments (Western blot)", "type": "cell-based, human", "settings": "SW1088 cells", "from_the_text": "FIGS. 9A-9C show nuclear import of ferritin is inhibited by alloxan, whereas cytoplasmic levels of ferritin are not affected. Under resting conditions, SW1088 cells contain ferritin in both nuclear and cytoplasmic compartments. […] The reappearance of ferritin in cytoplasmic and nuclear compartments after DFO treatment (alone) or treatment with DFO+alloxan is affected by the presence of alloxan (alx) and/or FAC in the culture medium. FIG. 9A is a schematic illustration of the experimental procedure, showing the time course of changes in culture conditions. FIG. 9B is a scan of Western blots of nuclear (N) and cytoplasmic (C) extracts of SW1088 cells, resolved by SDS/PAGE. Samples of the nuclear extract contained 20 μg of total protein, whereas samples of the cytoplasmic extract contained […] of total protein. Ferritin was detected with HS-59 mouse monoclonal antibody and horseradish peroxidase-conjugated goat anti-mouse IgG. Lane a, extracts from cells cultured in medium containing 100 μM DFO; lane b, extracts of cells cultured in normal medium; lane c, extracts of cells cultured in 100 μM FAC; lane d, extracts of cells cultured in 100 μM DFO+1 mM alloxan; lane e, extracts of cells cultured in normal medium supplemented with 1 mM alloxan; lane f, extracts of cells cultured in medium supplemented with 100 μM FAC+1 mM alloxan. FIG. 9C is a graph showing a summary of ferritin contents. The relative amounts of ferritin in the nuclear (black bars) and cytoplasmic (striped bars) fractions were measured after an initial treatment with DFO alone or DFO+[…] and a subsequent culture in the presence of DFO alone, normal medium, medium supplemented with FAC, medium supplemented with DFO+alloxan, normal medium+alloxan or normal medium+FAC and alloxan. The relative amounts of ferritin are normalized to the amount of ferritin in the corresponding fractions before the initial DFO treatment.\nDFO and alloxan treatments: The iron chelator DFO was used to examine the effect of iron chelation on ferritin localization in the nuclei of astrocytoma cells. Cells were cultured in the presence of 100 μM DFO for 72 h. Alloxan, an inhibitor of O-glycosylation, was used in astrocytoma cell cultures at final concentrations of 0.1 and 1.0 mM. Six cultures were established in parallel and allowed to reach 80% confluence. The first three were treated with 100 μM DFO for 72 h, then rinsed in Hanks balanced salt solution to remove the free DFO and returned to standard medium alone or to a medium containing 0.1 mM FAC (ferric ammonium citrate) or 0.1 mM DFO. After these treatments, culturing was continued for 24 h. Another set of three cultures were treated with 100 μM DFO+1 mM alloxan for 72 h. The cells were rinsed in Hanks balanced salt solution to remove free reagents and returned to standard medium containing 1 mM alloxan or a medium containing 0.1 mM FAC+[…] or a medium containing 100 μM DFO+1 mM alloxan. After these treatments, the culturing was continued for 24 h. At the end of the culture period, cells were harvested and nuclear and cytosolic fractions were prepared as described below.\nNuclear and cytosolic fractions: Plated astrocytoma cells were rinsed in Hanks balanced salts, trypsinized and the cells were collected by centrifugation (800 g for 10 min). The pelleted cells were rinsed twice in ice-cold PBS buffer [0.01 M sodium phosphate (pH 7.4 at 25° C.), 138 mM NaCl and 2.7 mM KCl] and collected by centrifugation. The cell pellets were resuspended in 20 vol. of 10 mM Hepes (pH 7.9 at 25° C.), 1.5 mM MgCl2, 10 mM NaCl and 0.5 mM DTT (dithiothreitol) containing the following protease inhibitors: AEBSF (1 mM), aprotinin (0.8 μM), leupeptin (20 μM), bestatin (40 μM), pepstatin (15 μM) and E-64 (14 μM). Cell suspensions were incubated in ice for 30 min and collected by centrifugation. […]"}, "[2]": {"biological_target": "recombinant human H-ferritin (rH-ferritin) (Homo sapiens, UniProt P02794)", "sequence (P02794 whole entry)": "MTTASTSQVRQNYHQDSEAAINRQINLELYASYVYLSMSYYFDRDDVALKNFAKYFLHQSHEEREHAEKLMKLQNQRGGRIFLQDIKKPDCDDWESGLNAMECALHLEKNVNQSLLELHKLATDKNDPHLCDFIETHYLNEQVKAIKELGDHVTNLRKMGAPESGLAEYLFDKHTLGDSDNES", "assay": "Supercoil relaxation assay for iron release from ferritin", "type": "biochemical", "settings": "rH-ferritin with or without 1 mM alloxan", "method": "Supercoil-relaxation assays were performed with pUC19 plasmid DNA (0.5 μg/assay). FIG. 11A is a scan showing electrophoretic profiles of pUC19 DNA incubated in the presence of recombinant H-ferritin (lanes a-e), recombinant H-ferritin+1 mM alloxan (lanes f-j) and 1 mM alloxan alone (lanes k-o). Reaction times were as indicated. Lane p, a sample of the superhelical pUC19 DNA that was not treated with ferritin. Band assignments: R, relaxed circle form; SC, superhelical topoisomers. FIG. 11B is a graph showing the mole fraction of superhelical DNA as a function of the reaction time for samples containing rH-ferritin (♦), rH-ferritin+1 mM alloxan (▪) and 1 mM alloxan alone (▴). Error bars represent S.D. values.\nSupercoil relaxation assay: DNA backbone breakage was detected using a superhelical DNA relaxation assay (Tachon, P. (1989) Free Radical Res. Commun. 7, 1-10; Crowe, A. and Morgan, E. H. (1992) Brain Res. 592, 8-16). The reaction mixtures (30 μl) contained covalently closed circular pUC19 DNA (0.5 μg; Sigma) dissolved in 10 mM Hepes (pH 7.5), 50 mM NaCl, 2.5 mM MgCl2 and 2.5 mM DTT. […] The mole fractions of superhelical and relaxed forms were measured by densitometry of photographic negatives of the gels after staining with 0.5 μg/ml ethidium bromide. […]"}, "[3]": {"system": "SW1088 human astrocytoma cells", "assay": "Cell viability assay (MTT) of alloxan-treated cells", "type": "cell-based", "settings": "alloxan up to 1.0 mM, 96 h", "method": "(§1) FIG. 10 is a graph showing alloxan inhibits protein O-glycosylation in SW1088 human astrocytoma cells. Cells were grown in triplicate independent cultures in the presence of 0, 100, 500 μM and 1 mM concentrations of alloxan. Aliquots of whole cell lysates from each culture were applied to a nitrocellulose membrane using a vacuum slot blot device. The membrane was blocked in a 5% solution of non-fat dry milk at 21±1° C. for 1 h and incubated overnight with mouse monoclonal anti-O-GlcNAc antibody. Immunocomplexes were detected and quantified. As an internal control for this assay, membrane loadings of 1 (♦), 5 (▪) and 10 (▴) μg of total protein were tested and they gave similar responses to changes in the concentration of alloxan in the original cultures.\n(§2) Cell viability assay: Cell viability measurement was performed using the reagent 3-(4,5-dimethylthiazol-2-yl)-2,5-diphenyl-2H-tetrazolium bromide (MTT), obtained from Roche Applied Science (Indianapolis, Ind., U.S.A.). The assay was performed according to the manufacturer's instructions.\n(§3) The effect of alloxan on ferritin redistribution is probably due to its influence on protein glycosylation or due to some other currently unknown effect. […] The cells were then harvested and total soluble proteins were analyzed by slot blot for O-glycosylation."}, "[4]": {"assay": "Cell viability assay (MTT) of alloxan-treated cells", "type": "cell-based, human", "settings": "human, SW1088 astrocytoma cells, 1 mM alloxan, read-out: cells remaining viable (MTT)", "method": "as §1, §2, §3"}, "[5]": {"system": "protein O-glycosylation in SW1088 human astrocytoma cells", "assay": "Detection of O-glycosylated proteins by slot blot with anti-O-GlcNAc antibody", "type": "cell-based", "settings": "SW1088 cells, 0, 0.1, 0.5 and 1.0 mM alloxan for 96 h", "method": "FIG. 10 is a graph showing alloxan inhibits protein O-glycosylation in SW1088 human astrocytoma cells. Cells were grown in triplicate independent cultures in the presence of 0, 100, 500 μM and 1 mM concentrations of alloxan. Aliquots of whole cell lysates from each culture were applied to a nitrocellulose membrane using a vacuum slot blot device. The membrane was blocked in a 5% solution of non-fat dry milk at 21±1° C. for 1 h and incubated overnight with mouse monoclonal anti-O-GlcNAc antibody. Immunocomplexes were detected and quantified. […]\nDetection of glycosylated proteins: SW1088 cultures were treated with different concentrations of alloxan for 96 h. […] Protein concentrations were measured and aliquots containing 1, 5 and 10 μg of total cell proteins were applied in triplicate to a 0.2 μm nitrocellulose membrane (Amersham Biosciences). […] Immunocomplexes were detected using peroxidase-conjugated goat anti-mouse IgG (Sigma) and visualized with the ECL+kit (Amersham Biosciences). […]\nas §3"}, "[6]": {"system": "rat primary astrocytes", "assay": "Cytotoxicity of iron compound TMHF on transfected astrocytes (MTT)", "type": "cell-based", "settings": "three concentrations of TMHF", "method": "FIG. 16 is a graph showing the cytotoxicity profile of stress factors on rat primarily astrocytes transfected with NLS and non-NLS H ferritin construct. Cytotoxicity was determined by MTT assay after treatment with three different concentrations of soluble iron compound 3,5,5-trimethyl (hexanoyl) ferrocene (TMHF). A total of 12 trials were run in triplicate for each sample and the grand mean and SE are reported.\nCytotoxicity was determined by MTT assay after treatment with three different concentrations of soluble iron compound 3,5,5-trimethyl (hexanoyl) ferrocene (TMHF). A total of 12 trials were run in triplicate for each sample and the grand mean and SE are reported. […] Other common stressors (hydrogen peroxide, cytokines, hypoxia) will also be examined."}, "[7]": {"system": "primary rat astrocytes", "assay": "Longevity of transfected astrocytes (MTT)", "type": "cell-based", "method": "FIG. 15 is a graph showing the results of the longevity of transfected astrocytes versus control. Cells were transfected and then plated at equal density.\nCells were transfected and then plated at equal density. The longevity experiments were performed in two ways. First, cell viability was monitored in cultures in which the media was changed every seven days. In the second experiment, the media was not changed for 30 days to test nutrient deprivation. An MTT assay was performed on randomly selected cell cultures from 24 well plates every two weeks to monitor cell viability. […] The non-transfected astrocytes, however, die at an increased rate compared to the ferritin transfected cells. We have continued the study out to five months on the transfected cells, but none of the non-transfected cells are alive.\nThirdly, the non-NLS ferritin translocated to the nucleus over time."}, "[8]": {"settings": "100 μM DFO+1 mM alloxan in the initial growth period, then fresh medium"}},
  "note": "Entries after “also recorded” stand apart in the source; their conditions may differ.",
  "data": [
    {"compound": "O=C1NC(=O)C(=O)C(=O)N1", "note": "[alloxan]", "values": [
      {"measurement": "cytoplasmic ferritin after DFO treatment (reappearance)", "setting": "[1]; [8]", "value": "remained essentially unchanged"},
      {"measurement": "reappearance of nuclear ferritin after DFO treatment", "setting": "[1]; [8]", "value": "inhibited"},
      {"measurement": "cytoplasmic ferritin after DFO treatment (reappearance)", "setting": "[1]; 100 μM DFO+1 mM alloxan in the initial growth period, then fresh medium, listed as Alloxan", "value": "no effect"},
      {"measurement": "FAC-induced increase in nuclear ferritin", "setting": "[1]; 100 μM FAC+1 mM alloxan", "value": "blocked"},
      {"measurement": "FAC-induced increase of cytoplasmic ferritin", "setting": "[1]; 100 μM FAC+1 mM alloxan", "value": "not the increase of cytoplasmic ferritin"},
      {"measurement": "disappearance of ferritin from the nuclear fraction when DFO is added", "setting": "[1]; DFO + alloxan", "value": "does not prevent"},
      {"measurement": "iron release from ferritin (DNA nicking of pUC19)", "setting": "[2]", "value": "does not effect the rate or amount of iron release from ferritin; also recorded: does not cause a significant release of iron from ferritin"},
      {"measurement": "effect on cell viability", "setting": "[3]", "value": "did not affect cell viability; also recorded: without significant effects on cell viability"},
      {"measurement": "viability at 96 h, 1 mM", "setting": "[4]", "value": "87 ± 3", "unit": "%"},
      {"measurement": "total amount of O-glycosylated protein", "setting": "[5]", "value": "decreases the total amount of O-glycosylated protein in a dose-dependent manner"}
    ]},
    {"compound": "CC(=O)N(O)CCCCCNC(=O)CCC(=O)N(O)CCCCCNC(=O)CCC(=O)N(O)CCCCCN", "note": "[DFO, desferoxamine]", "values": [
      {"measurement": "ferritin content in nuclear and cytoplasmic compartments", "setting": "[1]; 100 μM DFO", "value": "significantly decreases ferritin content in both compartments"}
    ]},
    {"compound": "ferric ammonium citrate [FAC]", "values": [
      {"measurement": "increase in nuclear and cytoplasmic ferritin contents relative to levels found in untreated cells", "setting": "[1]; 100 μM FAC added to standard medium after DFO", "value": "approx. 200%"}
    ]},
    {"compound": "ferritin", "values": [
      {"measurement": "ability of astrocytes to withstand iron induced stress", "setting": "[6]", "value": "increases the ability of primary astrocytes to withstand iron induced stress"},
      {"measurement": "survival of transfected cells, media changed", "setting": "[7]; media changed every seven days", "value": "three months"},
      {"measurement": "survival of transfected cells, media not changed", "setting": "[7]; nutrient deprivation, media not changed", "value": 30, "unit": "days"}
    ]}
  ]
}
